Reference: PubChem BioAssay AID1963870 (Molecular Pharmacology Branch, DTP, NCI, 2024)

Tested on: 292921-168-R-J2-PDC KRAS tumor spheroid viability
Assay: Anticancer human tumor 292921-168-R-J2-PDC patient-derived pancreatic carcinoma cell line growth inhibition [KRAS2]
Settings: spheroids with HUVEC and MSC; for IC50: curve of first compound; for viability, T/C: stronger effect = lower value
Description: Multicellular complex tumor spheroid response to RAS pathway inhibitors in combination with a targeted agents in patient-derived cell lines with oncogenic KRAS variants from multiple cancer types
A high-throughput screen of multi-cell type tumor spheroids was designed to identify active combinations of targeted small molecules and KRAS pathway inhibitors. Complex spheroids include a stromal component modeled by human endothelial cells (HUVEC) and fibroblasts modeled by human mesenchymal stem cells (MSCs). The concentration ranges selected for each drug and investigational agent were based upon clinically achievable concentrations if the clinical Cmax of the agent was known.
Compounds. The drugs and investigational agents: BI-3406 (NSC825286), BAY-293 (NSC824723), batoprotafib (TNO155; NSC825523), sotorasib (AMG 510; NSC818433), MRTX1257 (NSC819558), elimusertib (BAY 1895344; NSC800525), molibresib (GSK525762; NSC774829), temuterkib (LY3214996; NSC803410), venetoclax (NSC766270), alisertib (NSC759677), olaparib (NSC753686), talazoparib (NSC767125), erdafitinib (NSC781556), ipatasertib (NSC767898), cabozantinib (NSC761068), nintedanib (NSC756659), abemaciclib (NSC768073), docetaxel (NSC628503), trametinib (NSC758246), and sapanisertib (NSC764658) were obtained from the National Cancer Institute (NCI) Developmental Therapeutics Program Chemical Repository. The FDA-approved anticancer drug set is available from the Developmental Therapeutics Program. […] The stock solutions were prepared in dimethyl sulfoxide (DMSO, Sigma-Aldrich, St. Louis, MO, cat. D2650) at 800-fold the tested concentration and stored at -70 degrees C prior to their use. All drugs and investigational agents were tested over a range starting from a high concentration at or near the clinical Cmax and decreasing in half-log increments. If the clinical Cmax for an agent had not been determined, the highest concentration tested was 10 microM.
Cell Culture. All cells were maintained in an incubator at 37 degrees C and 5% CO2 with 95% humidity. The PDC lines were cultured according to standard operating procedures established by the NCI PDMR (https://pdmr.cancer.gov/sops/default.htm). Briefly, all PDCs were thawed and cultured in Matrigel-coated flasks prepared with a working solution of 1X Ham's F-12 nutrient mix, without supplementation (Invitrogen, Waltham, MA, cat. 11765054), 100 U/mL penicillin-streptomycin (Invitrogen, cat. 15140122), and 2.5% Matrigel (Corning Inc., Corning, NY, cat. 354248) for the first three passages. All PDCs were cultured in complete DMEM/F-12 media containing advanced DMEM/F-12 (Invitrogen, cat. 12634028), 4.9% defined fetal bovine serum, heat inactivated (HyClone Laboratories Inc., Logan, UT, cat. SH30070.03HI), 389 ng/mL hydrocortisone (Sigma-Aldrich, cat. H4001), 9.7 ng/mL human EGF recombinant protein (Invitrogen, cat. PHG0313), 23.4 microg/mL adenine (Sigma-Aldrich, cat. A2786), 97.3 U/mL penicillin-streptomycin (Invitrogen, cat. 15140122), 1.9 mM L-glutamine (Invitrogen, cat. 25030081), and 9.7 microM Y-27632 dihydrochloride (Tocris Bioscience, Bristol, United Kingdom, cat. 1254). The PDCs were cultured in complete DMEM/F12 media without 9.7 microM Y-27632 dihydrochloride for at least two passages prior to the screen. The established cell line HOP-62 was cultured in RPMI 1640 medium, HEPES (Invitrogen, cat. 22400105) with 10% defined fetal bovine serum (HyClone Laboratories Inc., cat. SH30070.03) and 2 mM L-glutamine (Invitrogen, cat. 25030081). The pooled donor HUVEC were cultured in endothelial cell growth medium 2 (PromoCell, Heidelberg, Germany, cat. C-22011) and the hMSC were cultured in mesenchymal stem cell growth medium 2 (PromoCell, cat. C-28009). For all experiments, HUVEC and hMSC were used at passages </=5, while the malignant cell lines were used at passages </=15. […]

[1] = second compound 0.1 µM, first compound 0.0316 µM
[2] = second compound 0.1 µM, first compound 0.1 µM
[3] = second compound 0.1 µM, first compound 0.316 µM
[4] = second compound 0.1 µM, first compound 1 µM
[5] = second compound 0.1 µM, first compound 3.16 µM
[6] = second compound 0.1 µM, first compound 10 µM
[7] = second compound 0.316 µM, first compound 0.0316 µM
[8] = second compound 0.316 µM, first compound 0.1 µM
[9] = second compound 0.316 µM, first compound 0.316 µM
[10] = second compound 0.316 µM, first compound 1 µM
[11] = second compound 0.316 µM, first compound 3.16 µM
[12] = second compound 0.316 µM, first compound 10 µM
[13] = second compound 1 µM, first compound 0.0316 µM
[14] = second compound 1 µM, first compound 0.1 µM
[15] = second compound 1 µM, first compound 0.316 µM
[16] = second compound 1 µM, first compound 1 µM
[17] = second compound 1 µM, first compound 3.16 µM
[18] = second compound 1 µM, first compound 10 µM
[19] = second compound 3.16 µM, first compound 0.0316 µM
[20] = second compound 3.16 µM, first compound 0.1 µM
[21] = second compound 3.16 µM, first compound 0.316 µM
[22] = second compound 3.16 µM, first compound 1 µM
[23] = second compound 3.16 µM, first compound 3.16 µM
[24] = second compound 3.16 µM, first compound 10 µM
[25] = second compound 10 µM, first compound 0.0316 µM
[26] = second compound 10 µM, first compound 0.1 µM
[27] = second compound 10 µM, first compound 0.316 µM
[28] = second compound 10 µM, first compound 1 µM
[29] = second compound 10 µM, first compound 3.16 µM
[30] = second compound 10 µM, first compound 10 µM
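Note: drug exposure lasted seven days after spheroids formed for three days.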
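Throughout, for viability, T/C: percent of DMSO vehicle control viability which is 100%.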

Structure (SMILES)	IC50 (second compound 0.1 µM) [µM]	IC50 (second compound 0.316 µM) [µM]	IC50 (second compound 1 µM) [µM]	IC50 (second compound 3.16 µM) [µM]	IC50 (second compound 10 µM) [µM]	viability, T/C [1] [%]	viability, T/C [2] [%]	viability, T/C [3] [%]	viability, T/C [4] [%]	viability, T/C [5] [%]	viability, T/C [6] [%]	viability, T/C [7] [%]	viability, T/C [8] [%]	viability, T/C [9] [%]	viability, T/C [13] [%]	viability, T/C [14] [%]	viability, T/C [19] [%]	viability, T/C [20] [%]	viability, T/C [25] [%]	viability, T/C [26] [%]	also measured
CC1OCC2(CCN(c3cnc(Sc4ccnc(N)c4Cl)c(N)n3)CC2)C1N (stereo not given) + C=CC(=O)N1CCN(c2nc(=O)n(-c3c(C)ccnc3C(C)C)c3nc(-c4c(O)cccc4F)c(F)cc23)C(C)C1	1.14	1.92	2.06	0.218	< 0.0316	96.8	83.1	64.5	51	42	33.4	108	82.5	69.2	104	89.9	65.2	57.6	17.8	15.9	viability, T/C [10]: 59.9%; viability, T/C [11]: 45.6%; viability, T/C [12]: 34.2%; viability, T/C [15]: 73.5%; viability, T/C [16]: 55.5%; viability, T/C [17]: 46.6%; viability, T/C [18]: 41.1%; viability, T/C [21]: 45.9%; viability, T/C [22]: 39%; viability, T/C [23]: 36.7%; viability, T/C [24]: 29.6%; viability, T/C [27]: 16.3%; viability, T/C [28]: 15.5%; viability, T/C [29]: 15.1%; viability, T/C [30]: 14.4%
CC(C)n1nc(-c2ccc3oc(N)nc3c2)c2c(N)ncnc21 + COc1cc2nc(C)nc(NC(C)c3cc(N)cc(C(F)(F)F)c3)c2cc1OC1CCOC1	0.00329	0.00394	0.00272	0.00134	< 0.000316	28.1	26.2					29.4	24.1		23.7	21.2	23.8	20.6	16.7	15.5	viability, T/C (second compound 0.1 µM, first compound 0.000316 µM): 35%; viability, T/C (second compound 0.1 µM, first compound 0.001 µM): 74.8%; viability, T/C (second compound 0.1 µM, first compound 0.00316 µM): 46.2%; viability, T/C (second compound 0.1 µM, first compound 0.01 µM): 38.8%; viability, T/C (second compound 0.316 µM, first compound 0.000316 µM): 88%; viability, T/C (second compound 0.316 µM, first compound 0.001 µM): 73.2%; viability, T/C (second compound 0.316 µM, first compound 0.00316 µM): 53.6%; viability, T/C (second compound 0.316 µM, first compound 0.01 µM): 35.7%; viability, T/C (second compound 1 µM, first compound 0.000316 µM): 81.1%; viability, T/C (second compound 1 µM, first compound 0.001 µM): 68.9%; viability, T/C (second compound 1 µM, first compound 0.00316 µM): 47%; viability, T/C (second compound 1 µM, first compound 0.01 µM): 30.5%; viability, T/C (second compound 3.16 µM, first compound 0.000316 µM): 64.9%; viability, T/C (second compound 3.16 µM, first compound 0.001 µM): 54.2%; viability, T/C (second compound 3.16 µM, first compound 0.00316 µM): 37.8%; viability, T/C (second compound 3.16 µM, first compound 0.01 µM): 26.3%; viability, T/C (second compound 10 µM, first compound 0.000316 µM): 32.7%; viability, T/C (second compound 10 µM, first compound 0.001 µM): 26.4%; viability, T/C (second compound 10 µM, first compound 0.00316 µM): 24.3%; viability, T/C (second compound 10 µM, first compound 0.01 µM): 17.7%
COC(=O)c1ccc2c(C(=Nc3ccc(N(C)C(=O)CN4CCN(C)CC4)cc3)c3ccccc3)c(O)[nH]c2c1 + CNCc1ccccc1-c1csc(C(C)Nc2nc(C)nc3cc(OC)c(OC)cc23)c1	0.538	0.516	0.407	< 0.0316	< 0.0316	101	92.9	64.5	31.9	10.4	0.5	90.5	88.1	64.2	106	88.3	0.14	0.23	0.2	0.22	viability, T/C [10]: 28.8%; viability, T/C [11]: 13.5%; viability, T/C [12]: 0.68%; viability, T/C [15]: 52.5%; viability, T/C [16]: 32.1%; viability, T/C [17]: 4.65%; viability, T/C [18]: 0.52%; viability, T/C [21]: 0.19%; viability, T/C [22]: 0.33%; viability, T/C [23]: 0.3%; viability, T/C [24]: 0.68%; viability, T/C [27]: 0.19%; viability, T/C [28]: 0.16%; viability, T/C [29]: 0.13%; viability, T/C [30]: 0.35%
